One series in a line: in vitro. The conditions noted are these: both, human; for Concentration (μM) of analyte PEA, 0 min / Concentration (μM) of analyte PEA, 10 min / Concentration (μM) of analyte PEA, 20 min / Concentration (μM) of analyte PEA, 30 min / Concentration (μM) of analyte PEA, 60 min / % Remaining of Initial (n = 1), 0 min / % Remaining of Initial (n = 1), 10 min / % Remaining of Initial (n = 1), 20 min / % Remaining of Initial (n = 1), 30 min / % Remaining of Initial (n = 1), 60 min: 1 μM; for % Remaining of Initial (n = 1), 0 min: s9, 0 h; for % Remaining of Initial (n = 1), 10 min: s9, 10 min; for % Remaining of Initial (n = 1), 20 min: s9, 20 min; for % Remaining of Initial (n = 1), 30 min: s9, 0.5 h; for % Remaining of Initial (n = 1), 60 min: s9, 1 h; for microsomal CLint at 1 μM: s9, CLint (mL/min/mg protein); for half-life at 1 μM: s9, Half-life (min). As to the method: The reaction mixture, minus cofactors, was prepared as described below. The test article was added into the reaction mixture at a final concentration of 1 μM. […] An aliquot of the reaction mixture (without cofactor cocktail) was equilibrated in a shaking water bath at 37° C. for 3 minutes. The reaction was initiated by the addition of cofactor cocktail, and the mixture was incubated in a shaking water bath at 37° C. Aliquots (100 μL) were withdrawn at 0, 10, 20, 30, and 60 minutes. All samples were immediately combined with 400 uL of icecold 50/50 acetonitrile/H2O containing 0.1% formic acid and internal standard to terminate the reaction. The samples were then mixed and centrifuged to precipitate proteins. Calibration standards were prepared in matched matrix. All samples and standards were assayed by LC-MS/MS using electrospray ionization for both the dosed prodrug I-9 and the expected drug (PEA). Analytical conditions are outlined in Appendix 4-1. The test article concentration at each time point was compared to the test article concentration at time 0 to determine the percent remaining at each time point. Half-lives were calculated using GraphPad software, fitting to single-phase exponential decay equation.
(§1) Reaction mixture, minus cofactors, was prepared as described below. Test article was added into the reaction mixture at a final concentration of 1 μM. […] An aliquot of the reaction mixture (without cofactor cocktail) was equilibrated in a shaking water bath at 37° C. for 3 minutes. The reaction was initiated by the addition of cofactor cocktail, and the mixture was incubated in a shaking water bath at 37° C. Aliquots (100 μL) were withdrawn at 0, 10, 20, 30, and 60 minutes. Test article samples were immediately combined with 300 μL of ice-cold acetonitrile containing 1% formic acid. Control samples were immediately combined with 400 μL of ice-cold 50/50 acetonitrile (ACN)/dH2O containing 0.1% formic acid and internal standard to terminate the reaction. Samples were then mixed and centrifuged to precipitate proteins. Calibration standards were prepared in matched matrix. Samples and standards were assayed by LC-MS/MS using electrospray ionization for both the dosed prodrug and the expected drug (PEA). Analytical conditions are outlined in Appendix 8-1. Test article concentration at each time point was compared to test article concentration at time 0 to determine the percent remaining at each time point. Halflives were calculated using GraphPad software, fitting to a single-phase exponential decay equation.
as §1, with “for 5” for “for 3”, “minutes. Reaction” for “minutes. The reaction”, “and” for “and the”, “both” for “both the”, “Appendix 10-1.” for “Appendix 8-1.”
Reaction mixture, minus cofactors, was prepared as described below.

Series [1] is described as follows: Plasma stability (37° C., pH 7.4), dog. The class given is in vitro ADME, Beagle dog. The conditions noted are these: test article 1 μM, 37° C.; for % Remaining of Initial (n = 1), 0 min / % Remaining of Initial (n = 1), 15 min / % Remaining of Initial (n = 1), 30 min / % Remaining of Initial (n = 1), 60 min / % Remaining of Initial (n = 1), 120 min: dog plasma; for % Remaining of Initial (n = 1), 0 min: pH 7.4, 0 min; for % Remaining of Initial (n = 1), 15 min: pH 7.4, 15 min; for % Remaining of Initial (n = 1), 30 min: pH 7.4, 30 min; for % Remaining of Initial (n = 1), 60 min: pH 7.4, 60 min; for % Remaining of Initial (n = 1), 120 min: pH 7.4, 120 min; for half-life at 1 μM: male, Beagle, dog, plasma, pH 7.4, dog plasma, pH 7.4. The method, then:
(§2) Studies were carried out in mixed-gender human plasma (Lot #GLP530-5), male Sprague-Dawley rat (Lot #RAT297944, RAT313140), male CD-1 mouse (Lot #MSE237700), and male Beagle dog (Lot #BGL87670, BGL82614), collected on sodium heparin. Plasma was adjusted to pH 7.4 prior to initiating the experiments. DMSO stocks were first prepared for the test articles. Aliquots of the DMSO solutions were dosed into 700 μL of plasma, which had been pre-warmed to 37° C., at a final test article concentration of 1 μM. […] Samples were stored at 4° C. until the end of the experiment. After the final time point was sampled, the plate was mixed and then centrifuged at 3,000 rpm for 10 minutes. Calibration standards were prepared in matched matrix. […] Analytical conditions are outlined in Appendix 8-1.
as §2, with “#AS1650-2),” for “#GLP530-5),”, “#RAT297944),” for “#RAT297944, RAT313140),”, “CD-I” for “CD-1”, “#BGL91384),” for “#BGL87670, BGL82614),”, “10-1.” for “8-1.”
Studies were carried out in mixed-gender human plasma (Lot #AS1650-2), male Sprague-Dawley rat (Lot #RAT297944), male CD-1 mouse (Lot #MSE237700), and male Beagle dog (Lot #BGL91384), collected on sodium heparin. Plasma was adjusted to pH 7.4 prior to initiating the experiments. DMSO stocks were first prepared for test articles. […] Samples were stored at 4° C. until the end of experiment. After the final time point was sampled, the plate was mixed and then centrifuged at 3,000 rpm for 10 minutes. Calibration standards were prepared in matched matrix. […] Analytical conditions are outlined in Appendix 13-1.
Studies were carried out in mixed-gender human plasma (Lot #AS 1650-2), male Sprague-Dawley rat (Lot #RAT320835), male CD-1 mouse (Lot #MSE260693), and 6 male Beagle dog (Lot #BGL91384), on sodium heparin. Plasma was adjusted to pH 7.4 prior to initiating the experiments. DMSO stocks were first prepared for the test articles. Aliquots of the DMSO solutions were dosed into 700 μL of plasma, which had been pre-warmed to 37° C., at a final test article concentration of 1 μM. […] Samples were stored at 4° C. until the end of the experiment. After the final time point was sampled, the plate was mixed and then centrifuged at 3,000 rpm for 10 minutes. Calibration standards were prepared in matched matrix. […] Analytical conditions are outlined in Appendix 17-1.

`CCCCC/C=C\C/C=C\CCCCCCCC(=O)OCCNC(=O)CCCCCCCCCCCCCCC` [Compound I-6]: in “in vitro”, the “Concentration (μM) of analyte PEA, 0 min” value is 0.0089 µM; the “Concentration (μM) of analyte PEA, 10 min” value (from here on “Concentration (μM) … 10 min”) stood at 0.023 µM; the “Concentration (μM) of analyte PEA, 20 min” value (“Concentration (μM) … 20 min” below) came out at 0.043 µM; the “Concentration (μM) of analyte PEA, 30 min” value (shortened to “Concentration (μM) … 30 min”) came out at 0.056 µM. Besides, in the series “in vitro”, the “Concentration (μM) of analyte PEA, 60 min” value (“Concentration (μM) … 60 min” for short) is 0.072 µM; the “% Remaining of Initial (n = 1), 0 min” value is 100%; the “% Remaining of Initial (n = 1), 10 min” value is on record as 109%; the “% Remaining of Initial (n = 1), 20 min” value is recorded as 103%. Moreover, in “in vitro”, the “% Remaining of Initial (n = 1), 30 min” value is reported as 82%; the “% Remaining of Initial (n = 1), 60 min” value was 70%; the microsomal CLint (as a rule, the rate of metabolic loss divided by the concentration) at 1 μM was less than 11.6 µL/min/mg; the half-life (in general, how long it takes for the measured level to halve) at 1 μM was greater than 1 h. In addition, the microsomal CLint at 1 μM in “in vitro” (calculated value in parentheses) was 6.82 µL/min/mg. The half-life at 1 μM in “in vitro” (calculated half-life in parentheses) is 1.7 h. For the same compound, in series [1], the “% Remaining of Initial (n = 1), 0 min” value was 100%; the “% Remaining of Initial (n = 1), 15 min” value was found to be 55%; the “% Remaining of Initial (n = 1), 30 min” value is reported as 42%; the “% Remaining of Initial (n = 1), 60 min” value is listed as 34%. Besides, in series [1], the “% Remaining of Initial (n = 1), 120 min” value was determined as 22% and the half-life at 1 μM came out at 0.6 h.

Take `CC/C=C\C/C=C\C/C=C\C/C=C\C/C=C\CCCC(=O)OCCNC(=O)CCCCCCCCCCCCCCC` [Compound I-5]: in “in vitro”, the “Concentration (μM) of analyte PEA, 0 min” value was 0 µM; the “Concentration (μM) … 10 min” value was 0.050 µM; the “Concentration (μM) … 20 min” value was 0.063 µM; the “Concentration (μM) … 30 min” value was determined as 0.074 µM. Moreover, in the series “in vitro”, the “Concentration (μM) … 60 min” value amounted to 0.10 µM; the “% Remaining of Initial (n = 1), 0 min” value came out at 100%; the “% Remaining of Initial (n = 1), 10 min” value turned out to be 82%; the “% Remaining of Initial (n = 1), 20 min” value is 49%. In addition, in “in vitro”, the “% Remaining of Initial (n = 1), 30 min” value came to 38%; the “% Remaining of Initial (n = 1), 60 min” value turned out to be 45%; the microsomal CLint at 1 μM came to 21.6 µL/min/mg; the half-life at 1 μM was found to be 0.533 h. For the same compound, in series [1], the “% Remaining of Initial (n = 1), 0 min” value amounted to 100%; the “% Remaining of Initial (n = 1), 15 min” value stood at 87%; the “% Remaining of Initial (n = 1), 30 min” value is reported as 98%; the “% Remaining of Initial (n = 1), 60 min” value worked out at 87%. For the same compound, in series [1], the “% Remaining of Initial (n = 1), 120 min” value was found to be 83% and the half-life at 1 μM is greater than 2 h.

As for `CCCCCCCCCCCCCCCC(=O)NCCOC(=O)CCC(=O)OCC(COC(=O)CCCCCCC)OC(=O)CCCCCCC` (centres unmarked) [Compound I-3, PEA-Succinate-Glycerol-Di-Caprylic], in “in vitro”, the “Concentration (μM) of analyte PEA, 0 min” value was determined as 0 µM; the “Concentration (μM) … 10 min” value was determined as 0.0027 µM; the “Concentration (μM) … 20 min” value worked out at 0.025 µM; the “Concentration (μM) … 30 min” value stood at 0.034 µM. In addition, in “in vitro”, the “Concentration (μM) … 60 min” value worked out at 0.048 µM; the “% Remaining of Initial (n = 1), 0 min” value was found to be 100%; the “% Remaining of Initial (n = 1), 10 min” value amounted to 76%; the “% Remaining of Initial (n = 1), 20 min” value is given as 86%. Also, in the series “in vitro”, the “% Remaining of Initial (n = 1), 30 min” value is 83%; the “% Remaining of Initial (n = 1), 60 min” value is recorded as 60%; the microsomal CLint at 1 μM was less than 11.6 µL/min/mg; the half-life at 1 μM was greater than 1 h. Also, in series [1], the “% Remaining of Initial (n = 1), 0 min” value stood at 100%; the “% Remaining of Initial (n = 1), 15 min” value came to 90%; the “% Remaining of Initial (n = 1), 30 min” value was 90%; the “% Remaining of Initial (n = 1), 60 min” value was determined as 95%. Besides, in series [1], the “% Remaining of Initial (n = 1), 120 min” value stood at 99% and the half-life at 1 μM is greater than 2 h.

Source of the values: patent publication US11547681B2, “N-acylethanolamide derivatives and uses thereof” (ELIEM THERAPEUTICS, INC., priority 2016, dated 2023).
